Reference: publication PMC9943626, “CS27109, A Selective Thyroid Hormone Receptor-β Agonist Alleviates Metabolic-Associated Fatty Liver Disease in Murine Models” (International Journal of Endocrinology, 2023)

Key:
THR-β = target: T1, THR-β (Homo sapiens, UniProt P10828); assay: Luciferase reporter gene assay, THR-β; format: cell-based
T1 construct: expressed in transfected cells; host or cells: CV-1 cells
T1 sequence (P10828 1-461): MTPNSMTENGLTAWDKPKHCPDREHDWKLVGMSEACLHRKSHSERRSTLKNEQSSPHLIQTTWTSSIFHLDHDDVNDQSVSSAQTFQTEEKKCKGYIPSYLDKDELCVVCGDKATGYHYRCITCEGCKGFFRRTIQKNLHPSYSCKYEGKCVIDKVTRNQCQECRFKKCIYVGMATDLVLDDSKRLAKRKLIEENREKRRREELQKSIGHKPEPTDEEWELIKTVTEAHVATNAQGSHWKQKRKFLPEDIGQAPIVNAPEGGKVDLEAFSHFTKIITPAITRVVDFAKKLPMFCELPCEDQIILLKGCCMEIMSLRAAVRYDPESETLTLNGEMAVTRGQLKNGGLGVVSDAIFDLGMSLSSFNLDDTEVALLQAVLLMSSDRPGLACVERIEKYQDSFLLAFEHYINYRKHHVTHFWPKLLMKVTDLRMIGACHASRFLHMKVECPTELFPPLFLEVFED
Protocol: (§1) We applied a luciferase reporter gene assay to assess the capacity of drugs to bind and activate THRα or THRβ. First, we seeded 5 × 10^3 CV-1 cells for each well into 96-well plates and incubated for 24 hours at 37°C and 5% CO2. We then transiently transfected mixed THR-α or THR-β expression plasmids (with DR4) into liposomes with a firefly luciferase reporter (2 : 2 : 1, THRα : DR4 : GFP or 3 : 3 : 1, THRβ : DR4 : GFP) and then mixed with the X-tremeGENE HP DNA Transfection Reagent (Roche, Basel, BS, Switzerland). […] We then removed the medium and added 60 μl of 1x Cell Culture Lysis and 5x reagent (Promega, E153A) to each well. […] Finally, we added 30 μl of Luciferase Assay Buffer (Promega, E151A) to each well to detect Luci values. 50% activation (AC50) for each compound was calculated based on these values.

WD + CCL4 model = tested on: WD + CCL4 model; design: method as in earlier work; conditions: CCL4 induction started at week 8 (8 weeks in total), drug began 4-week after CCL4 induction; CS27109 alone; ref our another study (manuscript is submitting to another journal); cited from earlier work
PK in the mouse = format: in vivo, C57/B6 mouse
Protocol: Blood was collected for each mouse 0.5, 1, 2, 3, 4, 6, 8, 24, and 30 hours (H) after compound administration. Then, the serum was isolated and an extractant (containing 200 ng/ml methanol) was added to the serum. Samples were assessed by liquid chromatography-tandem mass spectrometry (LC-MS/MS) according to the standard procedure.

THR-α = target: T2, THR-α (Homo sapiens, UniProt P10827); assay: Luciferase reporter gene assay, THR-α; format: cell-based; conditions: CV-1 cells transfected with THR-α, DR4 luciferase reporter, 22 hours
T2 construct: expressed in transfected cells; host or cells: CV-1 cells
T2 sequence (P10827 1-410 isoform P10827-2): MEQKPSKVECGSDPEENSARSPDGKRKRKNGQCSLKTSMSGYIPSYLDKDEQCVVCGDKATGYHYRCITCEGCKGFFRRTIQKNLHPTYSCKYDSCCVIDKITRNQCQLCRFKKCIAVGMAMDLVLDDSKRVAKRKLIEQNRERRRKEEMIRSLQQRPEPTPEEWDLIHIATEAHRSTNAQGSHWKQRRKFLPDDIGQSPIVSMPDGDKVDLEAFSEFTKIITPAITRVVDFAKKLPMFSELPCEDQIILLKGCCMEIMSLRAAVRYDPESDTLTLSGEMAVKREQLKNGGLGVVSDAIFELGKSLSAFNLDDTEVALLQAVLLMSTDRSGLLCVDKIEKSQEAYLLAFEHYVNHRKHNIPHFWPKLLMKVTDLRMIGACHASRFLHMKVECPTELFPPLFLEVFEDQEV
Protocol: as §1

- AC50 (THR-β; CV-1 cells transfected with THR-β, DR4 luciferase reporter, 22 hours): 1.98 µM
- Selectivity (α/β) (THR-β; THR-α/THR-β AC50 ratio): 12.67
- PK properties in mouse (comparison of CS27109 and MGL3196) (PK in the mouse; 10 mg/kg oral gavage once): comparative PK properties
- AUC in mouse relative to AUC in rat (PK in the mouse; 10 mg/kg oral, mouse higher than rat): 1.5 fold
- AC50 (THR-α): 25.1 µM
Compound: N#Cc1nn(-c2cc(Br)c(Oc3n[nH]c(=O)c4ccccc34)c(Br)c2)c(=O)[nH]c1=O [CS27109]
- liver fibrosis (WD + CCL4 model): sufficient to reverse liver fibrosis
